Measured values taken from patent publication US9388208B2, “Pyrrolo[1,2-f][1,2,4]triazines useful for treating respiratory syncitial virus infections” (Gilead Sciences, Inc., priority 2013, dated 2016).
Like-named read-outs stand apart in the source and are kept apart here.

Experiments:
MT-4 cells = experiment: Cytotoxicity assay in MT-4 cells; assay type: cell-based; details: 5 days, Cell-Titer Glo
Experimental: (§1) The MT-4 cell line was obtained from the NIH AIDS Research and Reference Reagent Program (Germantown, Md.) and cultured in RPMI-1640 medium (Irvine Scientific, Santa Ana, Calif., Cat #9160) supplemented with 10% FBS, 100 units/mL penicillin, 100 units/mL streptomycin, and 2 mM L-Glutamine. The MT-4 cells were passaged twice per week to maintain cell densities below 0.6×10^6 cells/mL. Complete RPMI-1640 media containing 100× concentrations of 3-fold serially diluted compound, ranging from 26 nM to 530 μM, were stamped in quadruplicate into black 384-well plates. After compound addition, 2×10^3 MT-4 cells were added to each well using a MicroFlo liquid dispenser (BioTek, Winooski, Vt.) and the cells were cultured for 5 days at 37° C. in a 5% CO2 incubator. Following the incubation the cells were allowed to equilibrate to 25° C. and cell viability was determined by adding 25 μL of Cell-Titer Glo viability reagent. The mixture was incubated for 10 minutes at 25° C., and the luminescence signal was quantified on a Victor Luminescence plate reader. The CC50 value is defined as the concentration of compound that reduces cell viability by 50% as determined by the Cell-Titer Glo signal. The data were analyzed using Pipeline Pilot Plate Data Analytics Collection software (Version 7.0, Accelrys, San Diego, Calif.). CC50 values were calculated from a non-linear regression analysis using a 4-parameter sigmoidal dose-response equation: Y=Bottom+(Top−Bottom)/(1+10^[(Log CC50−X)*HillSlope]) where the Top and Bottom were fixed at 100% and 0% cell viability, respectively. CC50 values were calculated as the average±standard deviation of 3 independent experiments.

RSV strain A2 = experiment: Anti-RSV activity, infectious cytopathic cell protection assay in HEp-2 cells; assay type: cell-based, Respiratory Syncytial Virus (RSV); details: human respiratory syncytial virus
Experimental: Antiviral activity against RSV is determined using an infectious cytopathic cell protection assay in HEp-2 cells. In this assay, compounds inhibiting viral infection and/or replication produce a cytoprotective effect against the virus-induced cell killing that can be quantified using a cell viability reagent. The techniques used here are novel adaptations of methods described in published literature (Chapman et al., Antimicrob Agents Chemother. 2007, 51(9):3346-53.)
HEp-2 cells are obtained from ATCC (Manassas, VI) and maintained in MEM media supplemented with 10% fetal bovine serum and penicillin/streptomycin. Cells are passaged twice a week and kept at subconfluent stage. Commercial stock of RSV strain A2 (Advanced Biotechnologies, Columbia, Md.) is titered before compound testing to determine the appropriate dilution of the virus stock that generates desirable cytopathic effect in HEp-2 cells.
For antiviral tests, HEp-2 cells are grown in large cell culture flasks to near confluency but not fully so. The compounds to be tested are prediluted in DMSO in 384-well compound dilution plates, either in an 8 or 40 sample per plate standardized dose response format. 3-fold serial dilution increments of each test compound are prepared in the plates and test samples are transferred via acoustic transfer apparatus (Echo, Labcyte) at 100 nl per well into cell culture assay 384-well plates. Each compound dilution is transferred in single or quadruplicate samples into dry assay plates, which are stored until assay is ready to go. The positive and negative controls are laid out in opposite on ends of the plate in vertical blocks (1 column).
Subsequently, an infectious mixture is prepared using an appropriate dilution of virus stock previously determined by titration with cells at a density of 50,000/ml and 20 uL/well is added to test plates w/compounds via automation (uFlow, Biotek). Each plate includes negative and positive controls (16 replicates each) to create 0% and 100% virus inhibition standards, respectively. Following the infection with RSV, testing plates are incubated for 4 days in a 37° C. cell culture incubator. After the incubation, a cell viability reagent, Cell TiterGlo (Promega, Madison, Wis.) is added to the assay plates, which are incubated briefly, and a luminescent readout is measured (Envision, Perkin Elmer) in all the assay plates. The RSV-induced cytopathic effect, percentage inhibition, is determined from the levels of remaining cell viability. These numbers are calculated for each tested concentration relative to the 0% and 100% inhibition controls, and the EC50 value for each compound is determined by non-linear regression as a concentration inhibiting the RSV-induced cytopathic effect by 50%. Various potent anti-RSV tool compounds are used as positive controls for antiviral activity.

[1] = Cytotoxicity assay in HEp-2 cells; assay type: cell-based; details: human, uninfected HEp-2 cells, CellTiter Glo
Experimental: (§2) Cytotoxicity of tested compounds is determined in uninfected HEp-2 cells in parallel with the antiviral activity using the cell viability reagent in a similar fashion as described before for other cell types (Cihlar et al., Antimicrob Agents Chemother. 2008, 52(2):655-65.). The same protocol as for the determination of antiviral activity is used for the measurement of compound cytotoxicity except that the cells are not infected with RSV. Instead, an uninfected cell mixture at the same density is added at 20 ul/well to plates containing prediluted compounds, also at 100 nl/sample. Assay plates are then incubated for 4 days followed by a cell viability test using the same CellTiter Glo reagent addition and measurement of luminescent readouts. Untreated cell and cells treated at 2 uM puromycin (Sigma, St. Louis, Mo.) serve as 100% and 0% cell viability control, respectively. The percent of cell viability is calculated for each tested compound concentration relative to the 0% and 100% controls and the CC50 value is determined by non-linear regression as a compound concentration reducing the cell viability by 50%.

HEp-2 cells = experiment: Cytotoxicity assay in HEp-2 cells; assay type: cell-based; details: uninfected HEp-2 cells, 4 days, CellTiter Glo
Experimental: as §2

[2] = target: T1, RSV ribonucleoprotein (RNP) complexes (Human respiratory syncytial virus A, UniProt P28887); experiment: RSV RNP assay (inhibition of RSV RNP transcription); assay type: biochemical, RSV A2; details: 90 minute incubation at 30° C., total radiolabeled transcripts
T1 construct: The supernatant (S3) fraction, containing the enriched RSV RNP complexes, was collected; endogenous in cells; host or cells: HEp-2 cells infected with RSV A2; detergent-extracted crude S3 fraction
Experimental: RSV ribonucleoprotein (RNP) complexes were prepared from a method modified from Mason at al (1). HEp-2 cells were plated at a density of 7.1×10^4 cells/cm^2 in MEM+10% fetal bovine serum (FBS) and allowed to attach overnight at 37° C. (5% CO2). Following attachment, the cells were infected with RSV A2 (M01=5) in 35 mL MEM+2% FBS. At 20 hours post-infection, the media was replaced with MEM+2% FBS supplemented with 2 μg/mL actinomycin D and returned to 37° C. for one hour. The cells were then washed once with PBS and treated with 35 mL of PBS+250 μg/mL lyso-lecithin for one minute, after which all liquid was aspirated. The cells were harvested by scrapping them into 1.2 mL of buffer A [50 mM TRIS acetate (pH 8.0), 100 mM potassium acetate, 1 mM DTT and 2 μg/mL actinomycin D] and lysed by repeated passage through an 18 gauge needle (10 times). The cell lysate was placed in ice for 10 minutes and then centrifuged at 2400g for 10 minutes at 4° C. The supernatant (S1) was removed and the pellet (P1) was disrupted in 600 uL of Buffer B [10 mM TRIS acetate (pH 8.0), 10 mM potassium acetate and 1.5 mM MgCl2] supplemented with 1% Triton X-100 by repeated passage through an 18 gauge needle (10 times). The resuspended pellet was placed in ice for 10 minutes and then centrifuged at 2400g for 10 minutes at 4° C. The supernatant (S2) was removed and the pellet (P2) was disrupted in 600 uL of Buffer B supplemented with 0.5% deoxycholate and 0.1% Tween 40. The resuspended pellet was placed in ice for 10 minutes and then centrifuged at 2400g for 10 minutes at 4° C. The supernatant (S3) fraction, containing the enriched RSV RNP complexes, was collected and the protein concentration determined by UV absorbance at 280 nm. Aliquoted RSV RNP S3 fractions were stored at −80° C.
Transcription reactions contained 25 μg of crude RSV RNP complexes in 30 μL of reaction buffer [50 mM TRIS-acetate (pH 8.0), 120 mM potassium acetate, 5% glycerol, 4.5 mM MgCl2, 3 mM DTT, 2 mM ethyleneglycol-bis(2-aminoethylether)-tetraacetic acid (EGTA), 50 μg/mL BSA, 2.5 U RNasin (Promega), ATP, GTP, UTP, CTP and 1.5 uCi [α-^32P] NTP (3000 Ci/mmol)]. The radiolabeled nucleotide used in the transcription assay was selected to match the nucleotide analog being evaluated for inhibition of RSV RNP transcription. Cold, competitive NTP was added at a final concentration of one-half its Km (ATP=20 μM, GTP=12.5 μM, UTP=6 μM and CTP=2 μM). The three remaining nucleotides were added at a final concentration of 100 μM.
To determine whether nucleotide analogs inhibited RSV RNP transcription, compounds were added using a 6 step serial dilution in 5-fold increments. Following a 90 minute incubation at 30° C., the RNP reactions were stopped with 350 μL of Qiagen RLT lysis buffer and the RNA was purified using a Qiagen RNeasy 96 kit. Purified RNA was denatured in RNA sample loading buffer (Sigma) at 65° C. for 10 minutes and run on a 1.2% agarose/MOPS gel containing 2M formaldehyde. The agarose gel was dried and exposed to a Storm phosphorimager screen and developed using a Storm phosphorimager (GE Healthcare). The concentration of compound that reduced total radiolabeled transcripts by 50% (IC50) was calculated by non-linear regression analysis of two replicates.

[3] = Cytotoxicity assay in MT-4 cells; assay type: cell-based; details: human, Cell-Titer Glo
Experimental: as §1

[4] = 96 h, HEp-2 cells infected with RSV A2, 4 days, Cell TiterGlo, read-out: EC50

T1 sequence (P28887 whole entry): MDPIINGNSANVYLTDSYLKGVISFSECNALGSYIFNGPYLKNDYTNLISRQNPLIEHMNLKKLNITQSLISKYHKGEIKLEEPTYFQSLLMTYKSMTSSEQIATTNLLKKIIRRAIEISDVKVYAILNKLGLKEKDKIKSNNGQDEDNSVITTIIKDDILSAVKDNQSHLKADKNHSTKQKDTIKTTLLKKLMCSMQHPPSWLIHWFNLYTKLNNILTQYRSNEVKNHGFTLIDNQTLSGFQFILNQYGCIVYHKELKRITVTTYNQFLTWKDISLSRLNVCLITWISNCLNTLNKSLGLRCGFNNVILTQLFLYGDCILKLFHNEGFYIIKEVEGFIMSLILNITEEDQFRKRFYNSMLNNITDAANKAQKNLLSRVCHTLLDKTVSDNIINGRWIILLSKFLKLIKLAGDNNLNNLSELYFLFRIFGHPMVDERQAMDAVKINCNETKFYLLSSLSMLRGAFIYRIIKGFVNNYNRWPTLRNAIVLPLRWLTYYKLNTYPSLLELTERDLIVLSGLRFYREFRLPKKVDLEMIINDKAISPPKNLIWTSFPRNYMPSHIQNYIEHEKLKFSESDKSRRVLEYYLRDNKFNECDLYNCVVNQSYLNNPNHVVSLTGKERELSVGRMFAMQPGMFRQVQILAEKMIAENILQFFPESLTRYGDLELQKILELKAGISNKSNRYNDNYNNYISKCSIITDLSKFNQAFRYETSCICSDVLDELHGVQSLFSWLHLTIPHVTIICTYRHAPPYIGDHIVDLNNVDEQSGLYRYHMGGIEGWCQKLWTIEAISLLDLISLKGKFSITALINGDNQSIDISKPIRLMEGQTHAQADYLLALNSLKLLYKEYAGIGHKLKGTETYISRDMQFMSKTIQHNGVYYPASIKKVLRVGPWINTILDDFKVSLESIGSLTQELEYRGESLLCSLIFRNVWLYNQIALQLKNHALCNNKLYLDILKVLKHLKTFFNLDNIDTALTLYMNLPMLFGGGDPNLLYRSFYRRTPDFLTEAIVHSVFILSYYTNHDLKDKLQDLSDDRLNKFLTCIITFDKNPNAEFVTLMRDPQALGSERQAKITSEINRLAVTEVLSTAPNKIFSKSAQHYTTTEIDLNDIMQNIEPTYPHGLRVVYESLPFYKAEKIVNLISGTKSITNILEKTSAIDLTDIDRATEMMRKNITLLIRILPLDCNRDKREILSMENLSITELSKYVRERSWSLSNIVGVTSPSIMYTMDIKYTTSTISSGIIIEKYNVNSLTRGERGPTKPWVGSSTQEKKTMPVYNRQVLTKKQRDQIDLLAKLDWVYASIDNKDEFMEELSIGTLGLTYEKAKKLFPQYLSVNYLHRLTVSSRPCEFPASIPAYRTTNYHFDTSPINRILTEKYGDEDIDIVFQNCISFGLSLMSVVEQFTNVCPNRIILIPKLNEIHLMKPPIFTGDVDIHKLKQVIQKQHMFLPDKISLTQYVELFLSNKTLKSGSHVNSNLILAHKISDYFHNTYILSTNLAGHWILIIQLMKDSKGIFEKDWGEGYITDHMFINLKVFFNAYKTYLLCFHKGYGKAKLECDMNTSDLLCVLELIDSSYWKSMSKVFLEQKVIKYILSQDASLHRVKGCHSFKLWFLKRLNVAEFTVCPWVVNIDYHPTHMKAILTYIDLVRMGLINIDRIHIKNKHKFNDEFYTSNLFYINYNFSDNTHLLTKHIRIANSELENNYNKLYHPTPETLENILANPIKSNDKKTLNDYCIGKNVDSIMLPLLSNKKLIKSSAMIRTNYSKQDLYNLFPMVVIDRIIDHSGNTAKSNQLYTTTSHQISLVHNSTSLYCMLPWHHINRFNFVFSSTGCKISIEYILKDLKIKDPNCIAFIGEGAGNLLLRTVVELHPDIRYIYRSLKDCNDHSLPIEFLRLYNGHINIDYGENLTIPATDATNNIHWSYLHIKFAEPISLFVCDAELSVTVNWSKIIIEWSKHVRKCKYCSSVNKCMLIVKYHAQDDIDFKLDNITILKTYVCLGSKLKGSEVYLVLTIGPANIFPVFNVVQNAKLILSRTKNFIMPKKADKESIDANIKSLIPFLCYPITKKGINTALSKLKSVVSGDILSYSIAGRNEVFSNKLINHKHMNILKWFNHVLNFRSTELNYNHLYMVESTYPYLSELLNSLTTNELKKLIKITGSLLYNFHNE
T1 sequence (P03421 whole entry, further chain): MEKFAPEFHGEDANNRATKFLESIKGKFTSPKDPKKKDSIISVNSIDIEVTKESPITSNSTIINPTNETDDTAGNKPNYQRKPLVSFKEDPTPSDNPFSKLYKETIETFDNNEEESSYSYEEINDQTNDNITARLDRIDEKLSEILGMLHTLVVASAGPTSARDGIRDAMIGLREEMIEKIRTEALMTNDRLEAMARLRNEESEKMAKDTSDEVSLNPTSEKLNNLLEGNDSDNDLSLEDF

| Structure (SMILES) | CC50 (MT-4 cells) | IC50 [2] | also measured |
| --- | --- | --- | --- |
| [N-]=[N+]=N[C@]1(CO)O[C@@H](c2ccc3c(N)nc(F)nn23)[C@H](F)[C@@H]1O [Example 22, (2R,3R,4R,5S)-5-(4-amino-2-fluoropyrrolo[2,1-f][1,2,4]triazin-7-yl)-2-azido-4-fluoro-2-(hydroxymethyl)tetrahydrofuran-3-ol] | 32000 nM |  | EC50 (RSV strain A2; [4]): 570 nM; EC50 (RSV strain A2; HEp-2 anti-RSV activity, read-out: EC50 (HEp-2 anti-RSV activity)): < 100000 nM; CC50 at 4 days [1]: > 100000 nM |
| CC(C)(C)C(=O)SCCOP(=O)(OCCSC(=O)C(C)(C)C)OC[C@@]1(C#N)O[C@@H](c2ccc3c(N)ncnn23)[C@H](O)[C@@H]1O [Example 10, S,S′-2,2′-((((2R,3S,4R,5S)-5-(4-aminopyrrolo[1,2-f][1,2,4]triazin-7-yl)-2-cyano-3,4-dihydroxytetrahydrofuran-2-yl)methoxy)phosphoryl)bis(oxy)bis(ethane-2,1-diyl)bis(2,2-dimethylpropanethioate)] | 7300 nM |  | EC50 (RSV strain A2; HEp-2, 96 h): 1000 nM; CC50 (HEp-2 cells): 39000 nM |
| N#C[C@]1(COP(=O)(O)OP(=O)(O)OP(=O)(O)O)O[C@@H](c2cc(F)c3c(N)ncnn23)[C@H](O)[C@@H]1O [Example 32, ((2R,3S,4R,5S)-5-(4-amino-5-fluoropyrrolo[2,1f-][1,2,4]triazin-7-yl)-2-cyano-3,4-dihydroxytetrahydrofuran-2-yl)methyl tetrahydrogen triphosphate] |  | 22 nM |  |
| Nc1ncnn2c([C@@H]3O[C@@](CO)(CCl)[C@@H](O)[C@H]3O)ccc12 [Example 26, (2R,3S,4R,5S)-5-(4-aminopyrrolo[2,1-f][1,2,4]triazin-7-yl)-2-(chloromethyl)-2-(hydroxymethyl)tetrahydrofuran-3,4-diol] | > 57000 nM |  | CC50 at 5 days [3]: > 53000 nM; EC50 (RSV strain A2; [4]): > 50000 nM; CC50 at 4 days [1]: 42000 nM |
| [N-]=[N+]=N[C@]1(COP(=O)(O)OP(=O)(O)OP(=O)(O)O)O[C@@H](c2ccc3c(N)ncnn23)[C@H](O)[C@@H]1O [Example 9, ((2R,3S,4R,5S)-5-(4-aminopyrrolo[2,1-f][1,2,4]triazin-7-yl)-2-azido-3,4-dihydroxytetrahydrofuran-2-yl)methyl tetrahydrogen triphosphate] |  | 120 nM |  |
| [N-]=[N+]=N[C@]1(COP(=O)(O)OP(=O)(O)OP(=O)(O)O)O[C@@H](c2cc(F)c3c(N)ncnn23)[C@H](F)[C@@H]1O [Example 28, ((2R,3R,4R,5S)-5-(4-amino-5-fluoropyrrolo[2,1f-][1,2,4]triazin-7-yl)-2-azido-4-fluoro-3-hydroxytetrahydrofuran-2-yl)methyl tetrahydrogen triphosphate] |  | 86 nM |  |
| [N-]=[N+]=N[C@]1(COP(=O)(O)OP(=O)(O)OP(=O)(O)O)O[C@@H](c2ccc3c(N)nc(F)nn23)[C@H](F)[C@@H]1O [Example 29, ((2R,3R,4R,5S)-5-(4-amino-2-fluoropyrrolo[2,1-f][1,2,4]triazin-7-yl)-2-azido-4-fluoro-3-hydroxytetrahydrofuran-2-yl)methyl tetrahydrogen triphosphate] |  | 80 nM |  |
| N#C[C@]1(COP(=O)(O)OP(=O)(O)OP(=O)(O)O)O[C@@H](c2ccc3c(N)ncnn23)[C@H](F)[C@@H]1O [Example 6, ((2R,3R,4R,5S)-5-(4-aminopyrrolo[1,2-f][1,2,4]triazin-7-yl)-2-cyano-4-fluoro-3-hydroxytetrahydrofuran-2-yl)methyl tetrahydrogen triphosphate] |  | 86 nM |  |
| N#C[C@]1(COP(=O)(O)OP(=O)(O)OP(=O)(O)O)O[C@@H](c2ccc3c(N)ncnn23)[C@H](O)[C@@H]1O [Example 8, ((2R,3S,4R,5S)-5-(4-aminopyrrolo[1,2-f][1,2,4]triazin-7-yl)-2-cyano-3,4-dihydroxytetrahydrofuran-2-yl)methyl tetrahydrogen triphosphate] |  | 25 nM |  |
